Reference: patent publication US12240816B2, “Deuterated compounds and uses thereof” (Aldeyra Therapeutics, Inc., priority 2015, dated 2025)
Like-named read-outs stand apart in the source and are kept apart here.

How the values were obtained:
MT3 (ML2) = molecular target: T1, MT3 (ML2) (Mesocricetus auratus, UniProt A0ABM2YAB8); assay: MT3 (ML2) (agonist radioligand) binding assay; details: MT3 (ML2)(h) (agonist radioligand), 1.0E−05M
T1 sequence (A0ABM2YAB8 1-231): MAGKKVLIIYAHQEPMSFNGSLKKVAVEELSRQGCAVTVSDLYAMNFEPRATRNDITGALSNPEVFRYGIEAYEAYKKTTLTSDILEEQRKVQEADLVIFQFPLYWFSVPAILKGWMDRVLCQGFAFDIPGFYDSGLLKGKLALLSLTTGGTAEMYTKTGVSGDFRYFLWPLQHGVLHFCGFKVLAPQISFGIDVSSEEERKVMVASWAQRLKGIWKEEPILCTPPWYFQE

guanylyl cyclase (h) = guanylyl cyclase (h) (Homo sapiens, UniProt Q02108+Q02153); type: biochemical; details: guanylyl cyclase (h) (activator effect); 1.0E−05M
[1] = molecular target: enzyme and uptake assay panel targets (Table 36) (Homo sapiens, UniProt P08253); assay: biochemical; type: biochemical; details: MMP-2 (h); 1.0E−05M
acetylcholinesterase (h) = acetylcholinesterase (h) (Homo sapiens, UniProt P22303); assay: biochemical
acetylcholinesterase (h), sequence (P22303 32-614): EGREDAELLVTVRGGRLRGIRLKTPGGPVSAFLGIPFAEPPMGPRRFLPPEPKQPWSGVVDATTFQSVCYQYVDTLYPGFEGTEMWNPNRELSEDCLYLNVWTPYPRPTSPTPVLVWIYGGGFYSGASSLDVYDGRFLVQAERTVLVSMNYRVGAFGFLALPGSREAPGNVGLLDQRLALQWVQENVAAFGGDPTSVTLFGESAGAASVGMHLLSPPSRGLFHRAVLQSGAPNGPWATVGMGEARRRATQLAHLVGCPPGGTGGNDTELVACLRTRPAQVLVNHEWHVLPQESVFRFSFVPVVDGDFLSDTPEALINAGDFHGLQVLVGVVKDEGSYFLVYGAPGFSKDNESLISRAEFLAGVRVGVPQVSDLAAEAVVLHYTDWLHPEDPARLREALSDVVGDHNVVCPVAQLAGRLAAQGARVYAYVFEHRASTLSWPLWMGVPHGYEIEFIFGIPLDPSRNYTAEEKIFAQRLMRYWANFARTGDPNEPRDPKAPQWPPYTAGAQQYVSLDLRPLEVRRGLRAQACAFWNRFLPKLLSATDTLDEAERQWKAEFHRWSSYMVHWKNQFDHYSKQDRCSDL

guanylyl cyclase (h), sequence (Q02153 whole entry): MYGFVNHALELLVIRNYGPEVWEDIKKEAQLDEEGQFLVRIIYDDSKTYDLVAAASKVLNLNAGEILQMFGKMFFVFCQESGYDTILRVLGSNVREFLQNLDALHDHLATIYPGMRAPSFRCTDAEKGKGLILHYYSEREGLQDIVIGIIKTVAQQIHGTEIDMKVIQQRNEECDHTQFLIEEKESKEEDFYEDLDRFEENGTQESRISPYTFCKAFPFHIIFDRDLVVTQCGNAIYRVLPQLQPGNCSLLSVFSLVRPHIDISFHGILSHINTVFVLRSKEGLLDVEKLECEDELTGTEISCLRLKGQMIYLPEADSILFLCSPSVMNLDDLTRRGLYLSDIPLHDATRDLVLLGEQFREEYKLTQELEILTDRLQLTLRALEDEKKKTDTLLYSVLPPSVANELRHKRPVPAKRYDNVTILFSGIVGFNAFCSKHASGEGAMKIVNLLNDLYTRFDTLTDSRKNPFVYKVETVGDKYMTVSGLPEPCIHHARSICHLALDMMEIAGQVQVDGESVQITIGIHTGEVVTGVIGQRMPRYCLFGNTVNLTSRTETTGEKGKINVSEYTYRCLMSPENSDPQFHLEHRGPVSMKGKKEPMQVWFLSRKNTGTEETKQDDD
guanylyl cyclase (h), sequence (Q02108 whole entry): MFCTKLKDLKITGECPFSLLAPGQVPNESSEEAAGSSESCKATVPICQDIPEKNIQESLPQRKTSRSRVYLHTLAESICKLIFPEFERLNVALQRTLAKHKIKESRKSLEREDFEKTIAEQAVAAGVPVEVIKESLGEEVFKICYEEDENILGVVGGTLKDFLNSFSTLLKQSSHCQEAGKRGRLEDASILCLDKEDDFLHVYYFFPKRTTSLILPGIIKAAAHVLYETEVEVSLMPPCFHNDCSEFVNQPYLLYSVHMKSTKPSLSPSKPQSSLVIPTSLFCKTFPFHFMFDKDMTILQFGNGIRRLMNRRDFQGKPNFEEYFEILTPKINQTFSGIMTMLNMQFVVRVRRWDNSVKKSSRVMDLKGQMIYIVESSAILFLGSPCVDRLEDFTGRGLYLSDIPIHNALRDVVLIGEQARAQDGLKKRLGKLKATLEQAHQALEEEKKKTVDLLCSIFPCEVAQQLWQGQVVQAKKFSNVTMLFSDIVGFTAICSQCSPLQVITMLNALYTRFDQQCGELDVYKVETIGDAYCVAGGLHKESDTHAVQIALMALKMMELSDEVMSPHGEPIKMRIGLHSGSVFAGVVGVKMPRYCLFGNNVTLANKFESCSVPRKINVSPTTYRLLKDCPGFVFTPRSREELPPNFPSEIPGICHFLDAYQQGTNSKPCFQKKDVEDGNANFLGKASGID
enzyme and uptake assay panel targets (Table 36), sequence (P08253 110-660): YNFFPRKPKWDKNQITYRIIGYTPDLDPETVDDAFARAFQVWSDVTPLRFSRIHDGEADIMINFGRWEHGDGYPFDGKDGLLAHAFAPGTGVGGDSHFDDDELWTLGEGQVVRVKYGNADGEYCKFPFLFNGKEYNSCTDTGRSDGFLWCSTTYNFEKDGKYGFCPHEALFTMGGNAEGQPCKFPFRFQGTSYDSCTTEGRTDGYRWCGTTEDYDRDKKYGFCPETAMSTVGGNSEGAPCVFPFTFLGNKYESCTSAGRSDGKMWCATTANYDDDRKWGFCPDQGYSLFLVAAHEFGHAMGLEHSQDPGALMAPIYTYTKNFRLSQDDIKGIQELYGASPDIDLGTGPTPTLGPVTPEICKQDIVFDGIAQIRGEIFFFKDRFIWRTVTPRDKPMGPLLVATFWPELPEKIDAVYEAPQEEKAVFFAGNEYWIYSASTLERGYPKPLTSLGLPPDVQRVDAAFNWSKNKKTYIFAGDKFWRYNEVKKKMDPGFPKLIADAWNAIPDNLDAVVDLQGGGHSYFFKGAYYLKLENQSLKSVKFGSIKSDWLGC

[2H]C([2H])([2H])C(O)(c1nc2ccc(Cl)cc2cc1N)C([2H])([2H])[2H] [Compound I-1]
inhibition at 10 µM (MT3 (ML2); read-out: % Inhibition of Control Specific Binding 1st): 69%
inhibition at 10 µM (MT3 (ML2); read-out: % Inhibition of Control Specific Binding 2nd): 73.3%
inhibition at 10 µM (MT3 (ML2); read-out: % Inhibition of Control Specific Binding Mean): 71.1%
% of Control Values 1st (guanylyl cyclase (h)): 0.2%
% of Control Values 2nd (guanylyl cyclase (h)): 0.3%
% of Control Values Mean (guanylyl cyclase (h)): 0.2%
% inhibition of Control Values 1st [1]: 4.9%
% inhibition of Control Values 2nd [1]: −2.4%
% inhibition of Control Values Mean [1]: 1.3%
inhibition at 10 µM (acetylcholinesterase (h); read-out: % inhibition of Control Values 1st): 45.8%
inhibition at 10 µM (acetylcholinesterase (h); read-out: % inhibition of Control Values 2nd): 60.1%
inhibition at 10 µM (acetylcholinesterase (h); read-out: % inhibition of Control Values Mean): 52.9%
